Test results published in patent EP1247803A2, “Indolinone compounds suitable for modulation of protein kinases” (Sugen, Inc., priority 1996, dated 1998).

What was measured:
MET = MET biochemical kinase assay; parameters: species or system human; concentration or dose not given beside the values
Procedure, shortened: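 Immunocaptured MET autophosphorylation, read colorimetrically (TMB) via HRP anti-phosphotyrosine antibody. Kinase reaction initiated with buffer containing ATP and divalent metals after compound addition to plate-bound receptor from lysates.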

PDGF-R = PDGF-R (Homo sapiens, UniProt P09619); assay: PDGF-R ELISA; type: cell-based
Chain of PDGF-R (P09619 33-1106, species assumed): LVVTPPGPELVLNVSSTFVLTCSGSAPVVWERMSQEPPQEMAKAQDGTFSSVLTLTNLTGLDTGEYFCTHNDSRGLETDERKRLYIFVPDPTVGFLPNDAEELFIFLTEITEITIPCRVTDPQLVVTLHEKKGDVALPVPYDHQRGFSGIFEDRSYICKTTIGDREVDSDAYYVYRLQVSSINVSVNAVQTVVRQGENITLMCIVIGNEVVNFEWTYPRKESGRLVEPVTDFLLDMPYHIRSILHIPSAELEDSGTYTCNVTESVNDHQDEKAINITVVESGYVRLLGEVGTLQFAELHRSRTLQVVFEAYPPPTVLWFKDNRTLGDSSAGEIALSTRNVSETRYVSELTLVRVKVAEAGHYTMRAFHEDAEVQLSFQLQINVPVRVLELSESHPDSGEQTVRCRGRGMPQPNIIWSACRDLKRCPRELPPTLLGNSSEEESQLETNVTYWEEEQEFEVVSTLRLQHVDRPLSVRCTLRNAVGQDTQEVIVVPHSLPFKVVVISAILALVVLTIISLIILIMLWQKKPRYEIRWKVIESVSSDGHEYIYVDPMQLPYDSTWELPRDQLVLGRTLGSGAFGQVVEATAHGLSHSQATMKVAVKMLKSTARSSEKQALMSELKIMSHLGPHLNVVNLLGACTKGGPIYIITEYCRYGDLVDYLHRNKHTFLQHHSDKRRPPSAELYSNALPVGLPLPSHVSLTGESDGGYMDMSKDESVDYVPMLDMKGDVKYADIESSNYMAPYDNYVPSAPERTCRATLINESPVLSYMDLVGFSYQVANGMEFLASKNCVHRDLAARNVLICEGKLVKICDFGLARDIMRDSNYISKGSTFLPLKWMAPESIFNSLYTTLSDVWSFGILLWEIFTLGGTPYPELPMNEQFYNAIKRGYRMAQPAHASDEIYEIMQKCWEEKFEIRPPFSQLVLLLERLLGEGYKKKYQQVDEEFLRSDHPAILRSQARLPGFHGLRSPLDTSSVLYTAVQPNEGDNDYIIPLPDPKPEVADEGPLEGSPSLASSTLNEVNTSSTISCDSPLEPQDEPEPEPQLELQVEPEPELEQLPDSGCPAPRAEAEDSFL
Source text: A PDGF-R ELISA is described in International Patent Publication No. WO 96/40116, published December 19, 1996 by Tang et al.

EGFR = target: T1, EGFR (Homo sapiens, UniProt P00533); assay: EGFR ELISA assay (in vitro kinase activity, EGFR captured from A431 cell lysate); type: biochemical; parameters: concentration or dose not given beside the values
T1 construct: Add 7 ug A431 cell lysate per well (EGFR source); endogenous in cells; host or cells: A431
T1 sequence (P00533 25-1210): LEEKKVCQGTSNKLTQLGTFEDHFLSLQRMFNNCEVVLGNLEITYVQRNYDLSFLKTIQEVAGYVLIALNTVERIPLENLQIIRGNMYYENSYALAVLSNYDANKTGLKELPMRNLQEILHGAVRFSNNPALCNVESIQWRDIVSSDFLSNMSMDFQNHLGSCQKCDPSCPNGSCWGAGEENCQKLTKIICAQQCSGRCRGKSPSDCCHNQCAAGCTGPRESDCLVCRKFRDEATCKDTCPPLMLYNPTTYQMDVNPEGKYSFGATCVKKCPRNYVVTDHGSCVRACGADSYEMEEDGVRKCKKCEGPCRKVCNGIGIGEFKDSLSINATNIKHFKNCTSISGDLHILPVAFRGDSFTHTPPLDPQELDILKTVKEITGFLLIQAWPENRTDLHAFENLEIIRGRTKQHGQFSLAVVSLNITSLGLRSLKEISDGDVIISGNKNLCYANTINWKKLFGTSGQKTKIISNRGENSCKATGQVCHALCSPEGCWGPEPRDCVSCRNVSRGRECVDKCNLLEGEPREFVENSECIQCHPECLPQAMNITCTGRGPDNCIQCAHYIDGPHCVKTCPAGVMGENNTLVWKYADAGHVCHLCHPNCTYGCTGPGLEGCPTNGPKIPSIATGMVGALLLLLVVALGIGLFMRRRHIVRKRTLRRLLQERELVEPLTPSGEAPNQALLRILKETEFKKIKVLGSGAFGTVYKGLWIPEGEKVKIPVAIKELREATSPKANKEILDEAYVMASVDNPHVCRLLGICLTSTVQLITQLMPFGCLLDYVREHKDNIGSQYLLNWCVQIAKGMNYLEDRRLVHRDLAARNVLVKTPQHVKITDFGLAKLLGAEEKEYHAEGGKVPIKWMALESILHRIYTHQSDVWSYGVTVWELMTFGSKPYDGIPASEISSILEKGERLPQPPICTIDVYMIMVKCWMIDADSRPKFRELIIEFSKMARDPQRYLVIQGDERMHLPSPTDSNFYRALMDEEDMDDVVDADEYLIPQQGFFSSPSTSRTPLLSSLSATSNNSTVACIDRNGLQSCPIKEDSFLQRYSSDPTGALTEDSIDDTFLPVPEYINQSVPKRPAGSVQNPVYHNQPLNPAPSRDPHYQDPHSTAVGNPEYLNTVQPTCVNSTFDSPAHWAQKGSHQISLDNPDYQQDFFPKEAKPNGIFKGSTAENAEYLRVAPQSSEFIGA
Procedure, shortened: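 EGFR from A431 lysate was captured on anti-EGFR antibody-coated plates and preincubated with compounds for 30 min. Autophosphorylation ran 5 min with 3 uM ATP and 5 mM MnCl2 (final), stopped with 20 mM EDTA. Phosphotyrosine was detected by anti-pTyr ELISA with ABTS/H2O2, read at 410 nm.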

SMILES: O=C1Nc2ccc(S(=O)(=O)Nc3ccc(C(F)(F)F)cc3)cc2C1=Cc1ccccn1 [10729/E07]
- Met Kinase % Inhibition (MET): 21.6%
- PDGF Kinase %Inhibition (PDGF-R): 29.6%
- Biochem EGFR %Inhibition (EGFR): 26.7%

SMILES: CNS(=O)(=O)c1ccc2c(c1)C(=Cc1cccc(C(F)(F)F)c1F)C(=O)N2 [10728/D07]
- Met Kinase % Inhibition (MET): 21.8%
- PDGF Kinase %Inhibition (PDGF-R): 2.3%
- Biochem EGFR %Inhibition (EGFR): 2.4%

SMILES: O=C1Nc2ccc(I)cc2C1=Cc1ccc(N2CCCC2)cc1 [10729/B10]
- Met Kinase % Inhibition (MET): 32.6%
- PDGF Kinase %Inhibition (PDGF-R): -13.9%
- Biochem EGFR %Inhibition (EGFR): 68.3%

SMILES: Cc1c(Br)ccc2c1C(=Cc1cccc(Oc3ccccc3)c1)C(=O)N2 [10729/C06]
- Met Kinase % Inhibition (MET): 15.2%
- PDGF Kinase %Inhibition (PDGF-R): 3.1%
- Biochem EGFR %Inhibition (EGFR): 38.2%

SMILES: COc1ccc2ccccc2c1C=C1C(=O)Nc2ccc(Br)c(C)c21 [10729/C02]
- Met Kinase % Inhibition (MET): 18.2%
- PDGF Kinase %Inhibition (PDGF-R): 9.1%
- Biochem EGFR %Inhibition (EGFR): 16.9%

SMILES: CNS(=O)(=O)c1ccc2c(c1)C(=Cc1cc(OC)c3c(c1)OCO3)C(=O)N2 [10728/D11]
- Met Kinase % Inhibition (MET): 52.5%
- PDGF Kinase %Inhibition (PDGF-R): -10.2%
- Biochem EGFR %Inhibition (EGFR): 22.1%

SMILES: O=C1Nc2c(Br)cc(Br)cc2C1=CC1C=CCCC1 (stereo not drawn) [10729/A11]
- Met Kinase % Inhibition (MET): 49.9%
- PDGF Kinase %Inhibition (PDGF-R): -11.7%
- Biochem EGFR %Inhibition (EGFR): 15.5%

SMILES: O=C1Nc2ccc(S(=O)(=O)Nc3ccc(C(F)(F)F)cc3)cc2C1=Cc1c(F)cccc1C(F)(F)F [10728/E09]
- Met Kinase % Inhibition (MET): 40.0%
- PDGF Kinase %Inhibition (PDGF-R): 22.3%
- Biochem EGFR %Inhibition (EGFR): 0.1%

SMILES: COc1ccc(C=C2C(=O)Nc3ccc(S(=O)(=O)Nc4ccc(C(F)(F)F)cc4)cc32)c2ccccc12 [10729/E03]
- Met Kinase % Inhibition (MET): 27.5%
- PDGF Kinase %Inhibition (PDGF-R): 29.2%
- Biochem EGFR %Inhibition (EGFR): 20.1%

SMILES: COc1cccc(OC)c1C=C1C(=O)Nc2ccc(S(=O)(=O)Nc3ccc(C(F)(F)F)cc3)cc21 [10728/E03]
- Met Kinase % Inhibition (MET): 11.9%
- PDGF Kinase %Inhibition (PDGF-R): 12.0%
- Biochem EGFR %Inhibition (EGFR): 9.5%

SMILES: O=C1Nc2ccc(S(=O)(=O)Nc3ccc(C(F)(F)F)cc3)cc2C1=Cc1ccc2c(c1)Cc1ccccc1-2 [10728/E06]
- Met Kinase % Inhibition (MET): 26.4%
- PDGF Kinase %Inhibition (PDGF-R): 12.0%
- Biochem EGFR %Inhibition (EGFR): -4.7%

SMILES: Cc1ccsc1C=C1C(=O)Nc2ccc(Br)c(C)c21 [10729/C05]
- Met Kinase % Inhibition (MET): 15.5%
- PDGF Kinase %Inhibition (PDGF-R): -5.6%
- Biochem EGFR %Inhibition (EGFR): 21.8%

SMILES: O=C1Nc2ccc(I)cc2C1=Cc1cccc(Oc2ccccc2)c1 [10729/B06]
- Met Kinase % Inhibition (MET): 61.1%
- PDGF Kinase %Inhibition (PDGF-R): -19.2%
- Biochem EGFR %Inhibition (EGFR): 56.9%

SMILES: COc1ccc(OC)c(C=C2C(=O)Nc3ccc(CCCl)cc32)c1 [10728/G02]
- Met Kinase % Inhibition (MET): 7.1%
- PDGF Kinase %Inhibition (PDGF-R): 0.9%
- Biochem EGFR %Inhibition (EGFR): -10.2%

SMILES: O=C1Nc2ccc(I)cc2C1=Cc1ccncc1 [10729/B09]
- Met Kinase % Inhibition (MET): 47.2%
- PDGF Kinase %Inhibition (PDGF-R): -6.4%
- Biochem EGFR %Inhibition (EGFR): 51.6%

SMILES: CNS(=O)(=O)c1ccc2c(c1)C(=Cc1ccc(OC)c3ccccc13)C(=O)N2 [10729/D03]
- Met Kinase % Inhibition (MET): 22.6%
- PDGF Kinase %Inhibition (PDGF-R): 14.1%
- Biochem EGFR %Inhibition (EGFR): 15.5%

SMILES: CNS(=O)(=O)c1ccc2c(c1)C(=Cc1ccc(SC)cc1)C(=O)N2 [10729/D04]
- Met Kinase % Inhibition (MET): 33.1%
- PDGF Kinase %Inhibition (PDGF-R): -12.8%
- Biochem EGFR %Inhibition (EGFR): 18.8%

SMILES: O=C1Nc2ccc(CCCl)cc2C1=Cc1ccc2c(c1)Cc1ccccc1-2 [10728/G06]
- Met Kinase % Inhibition (MET): 25.3%
- PDGF Kinase %Inhibition (PDGF-R): -13.3%
- Biochem EGFR %Inhibition (EGFR): -14.1%

SMILES: COc1ccc2ccccc2c1C=C1C(=O)Nc2ccc(I)cc21 [10729/B02]
- Met Kinase % Inhibition (MET): 77.2%
- PDGF Kinase %Inhibition (PDGF-R): -10.2%
- Biochem EGFR %Inhibition (EGFR): 34.9%

SMILES: O=C1Nc2c(Br)cc(Br)cc2C1=Cc1cccc(Oc2ccccc2)c1 [10729/A06]
- Met Kinase % Inhibition (MET): 29.8%
- PDGF Kinase %Inhibition (PDGF-R): -8.6%
- Biochem EGFR %Inhibition (EGFR): 36.5%

SMILES: O=C1Nc2c(Br)cc(Br)cc2C1=Cc1cccnc1 [10729/A08]
- Met Kinase % Inhibition (MET): 48.1%
- PDGF Kinase %Inhibition (PDGF-R): -23.4%
- Biochem EGFR %Inhibition (EGFR): 37.8%

SMILES: COc1ccc(C=C2C(=O)Nc3ccc(Br)c(C)c32)c2ccccc12 [10729/C03]
- Met Kinase % Inhibition (MET): 13.5%
- PDGF Kinase %Inhibition (PDGF-R): 13.7%
- Biochem EGFR %Inhibition (EGFR): 25.7%

SMILES: O=C1Nc2ccc(I)cc2C1=Cc1cccnc1 [10729/B08]
- Met Kinase % Inhibition (MET): 66.0%
- PDGF Kinase %Inhibition (PDGF-R): -13.6%
- Biochem EGFR %Inhibition (EGFR): 53.2%

SMILES: Cc1ccsc1C=C1C(=O)Nc2ccc(S(=O)(=O)Nc3ccc(C(F)(F)F)cc3)cc21 [10729/E05]
- Met Kinase % Inhibition (MET): 13.4%
- PDGF Kinase %Inhibition (PDGF-R): 29.9%
- Biochem EGFR %Inhibition (EGFR): 12.6%

SMILES: O=C1Nc2ccc(S(=O)(=O)Nc3ccc(C(F)(F)F)cc3)cc2C1=Cc1cccc(C(F)(F)F)c1F [10728/E07]
- Met Kinase % Inhibition (MET): 79.8%
- PDGF Kinase %Inhibition (PDGF-R): 28.0%
- Biochem EGFR %Inhibition (EGFR): 21.8%

SMILES: CNS(=O)(=O)c1ccc2c(c1)C(=Cc1cccc(Oc3ccccc3)c1)C(=O)N2 [10729/D06]
- Met Kinase % Inhibition (MET): 30.2%
- PDGF Kinase %Inhibition (PDGF-R): 2.7%
- Biochem EGFR %Inhibition (EGFR): 45.7%

SMILES: CNS(=O)(=O)c1ccc2c(c1)C(=Cc1ccncc1)C(=O)N2 [10729/D09]
- Met Kinase % Inhibition (MET): 34.8%
- PDGF Kinase %Inhibition (PDGF-R): -12.1%
- Biochem EGFR %Inhibition (EGFR): 22.1%

SMILES: O=C1Nc2ccc(S(=O)(=O)Nc3ccc(C(F)(F)F)cc3)cc2C1=Cc1cccc(Oc2ccccc2)c1 [10729/E06]
- Met Kinase % Inhibition (MET): -0.7%
- PDGF Kinase %Inhibition (PDGF-R): 24.7%
- Biochem EGFR %Inhibition (EGFR): 43.7%

SMILES: COc1ccc(OC)c(C=C2C(=O)Nc3ccc(S(=O)(=O)NN4CCOCC4)cc32)c1 [10728/F02]
- Met Kinase % Inhibition (MET): 25.6%
- PDGF Kinase %Inhibition (PDGF-R): 7.2%
- Biochem EGFR %Inhibition (EGFR): 4.4%

SMILES: Cc1c(Br)ccc2c1C(=Cc1ccccn1)C(=O)N2 [10729/C07]
- Met Kinase % Inhibition (MET): 58.4%
- PDGF Kinase %Inhibition (PDGF-R): -1.8%
- Biochem EGFR %Inhibition (EGFR): 60.8%

SMILES: COc1cccc(OC)c1C=C1C(=O)Nc2ccc(CCCl)cc21 [10728/G03]
- Met Kinase % Inhibition (MET): 8.8%
- PDGF Kinase %Inhibition (PDGF-R): -8.4%
- Biochem EGFR %Inhibition (EGFR): -2.0%

SMILES: Cc1ccsc1C=C1C(=O)Nc2ccc(I)cc21 [10729/B05]
- Met Kinase % Inhibition (MET): 51.0%
- PDGF Kinase %Inhibition (PDGF-R): -25.7%
- Biochem EGFR %Inhibition (EGFR): 50.6%

SMILES: O=C1Nc2ccc(I)cc2C1=CC1C=CCCC1 (stereo not drawn) [10729/B11]
- Met Kinase % Inhibition (MET): 36.6%
- PDGF Kinase %Inhibition (PDGF-R): 4.2%
- Biochem EGFR %Inhibition (EGFR): 18.8%

SMILES: COc1cc(C=C2C(=O)Nc3ccc(CCCl)cc32)cc2c1OCO2 [10728/G11]
- Met Kinase % Inhibition (MET): 71.4%
- PDGF Kinase %Inhibition (PDGF-R): -12.8%
- Biochem EGFR %Inhibition (EGFR): 16.1%

SMILES: Cc1c(Br)ccc2c1C(=Cc1ccncc1)C(=O)N2 [10729/C09]
- Met Kinase % Inhibition (MET): 60.4%
- PDGF Kinase %Inhibition (PDGF-R): -34.8%
- Biochem EGFR %Inhibition (EGFR): 33.2%

SMILES: CNS(=O)(=O)c1ccc2c(c1)C(=Cc1c(OC)ccc3ccccc13)C(=O)N2 [10729/D02]
- Met Kinase % Inhibition (MET): 31.7%
- PDGF Kinase %Inhibition (PDGF-R): 15.6%
- Biochem EGFR %Inhibition (EGFR): -5.7%

SMILES: Cc1c(Br)ccc2c1C(=Cc1cccnc1)C(=O)N2 [10729/C08]
- Met Kinase % Inhibition (MET): 55.7%
- PDGF Kinase %Inhibition (PDGF-R): -13.6%
- Biochem EGFR %Inhibition (EGFR): 25.4%

SMILES: CNS(=O)(=O)c1ccc2c(c1)C(=Cc1cccnc1)C(=O)N2 [10729/D08]
- Met Kinase % Inhibition (MET): 27.6%
- PDGF Kinase %Inhibition (PDGF-R): -21.1%
- Biochem EGFR %Inhibition (EGFR): 10.3%

SMILES: CSc1ccc(C=C2C(=O)Nc3c(Br)cc(Br)cc32)cc1 [10729/A04]
- Met Kinase % Inhibition (MET): 45.4%
- PDGF Kinase %Inhibition (PDGF-R): -16.6%
- Biochem EGFR %Inhibition (EGFR): 58.8%

SMILES: Cc1c(Br)ccc2c1C(=Cc1ccc(N3CCCC3)cc1)C(=O)N2 [10729/C10]
- Met Kinase % Inhibition (MET): 15.8%
- PDGF Kinase %Inhibition (PDGF-R): 3.5%
- Biochem EGFR %Inhibition (EGFR): 45.7%
